This experiment concerns P388 leukemia ip, CD2F1 mice, survival T/C. Kind of experiment: NCI In Vivo Anticancer Drug Screen. Data for tumor model P388 Leukemia (intraperitoneal) in CD2F1 (CDF1) mice. Conditions: endpoint: median survival time, higher = longer survival. A digest of the protocol:
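Mice carrying the transplanted tumor received test compound or vehicle. Survival was recorded in each group, and the value is the treated-group measurement divided by that of the vehicle-treated control group.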

[1] abbreviates: dose: 50.0 mg/kg/injection, schedule: Q01DX009 (ip), vehicle: saline with Tween-80.
Where [2] appears, read: dose: 100.0 mg/kg/injection, schedule: Q01DX009 (ip), vehicle: saline with Tween-80.
The mark [3] stands for this setting: dose: 200.0 mg/kg/injection, schedule: Q01DX009 (ip), vehicle: saline with Tween-80.
Where [4] appears, read: dose: 50.0 mg/kg/injection, schedule: Q01DX005 (ip), vehicle: saline with Tween-80.
[5] abbreviates: dose: 100.0 mg/kg/injection, schedule: Q01DX005 (ip), vehicle: saline with Tween-80.
Setting [6] is: dose: 200.0 mg/kg/injection, schedule: Q01DX005 (ip), vehicle: saline with Tween-80.

The structures appear in SMILES notation. Several values for one entry are separate records, joined by “and”; a condition that tells them apart may be missing. Equal entries are not always repeated. Inconclusive results and toxic doses are left out.

Consider `COc1cccc2c1C(=O)c1c(O)c3c(c(O)c1C2=O)CC(O)(/C(C)=N/NC(=O)CCC(=O)N/N=C(\C)C1(O)Cc2c(O)c4c(c(O)c2C(OC2CC(N(C)C)C(O)C(C)O2)C1)C(=O)c1c(OC)cccc1C4=O)CC3OC1CC(N(C)C)C(O)C(C)O1` (stereo not drawn), for which the T/C is, setting by setting: (dose: 1.0 mg/kg/injection, schedule: Q01DX009 (ip), vehicle: water) 157 % of control; (dose: 2.0 mg/kg/injection, schedule: Q01DX009 (ip), vehicle: water) 183 % of control; (dose: 3.13 mg/kg/injection, schedule: Q04DX003 (ip), vehicle: water) 103 % of control; (dose: 4.0 mg/kg/injection, schedule: Q01DX009 (ip), vehicle: water) 178 % of control and 203 % of control; (dose: 6.25 mg/kg/injection, schedule: Q04DX003 (ip), vehicle: water) 110 % of control; (dose: 8.0 mg/kg/injection, schedule: Q01DX009 (ip), vehicle: water) 160 % of control and 240 % of control. For the same compound, the T/C is 117 % of control (dose: 12.5 mg/kg/injection, schedule: Q04DX003 (ip), vehicle: water); 152 % of control (dose: 16.0 mg/kg/injection, schedule: Q01DX009 (ip), vehicle: water); 174 % of control (dose: 25.0 mg/kg/injection, schedule: Q04DX003 (ip), vehicle: water); 119 % of control (dose: 50.0 mg/kg/injection, schedule: Q04DX003 (ip), vehicle: water).

`OC1(C2NCCc3ccccc32)CCN(CCc2ccccc2)CC1` (stereo not drawn): the T/C is, setting by setting: (dose: 50.0 mg/kg/injection, schedule: Q01DX009 (ip), vehicle: Klucel (hydroxypropylcellulose) (HPC)) 87 % of control; (dose: 100.0 mg/kg/injection, schedule: Q01DX009 (ip), vehicle: Klucel (hydroxypropylcellulose) (HPC)) 94 % of control.

As to `Cc1nc2c(Cl)cc(Cl)cc2c(=O)n1CC(=O)NNC(N)=S`, the T/C under setting [1] is 97 % of control, the T/C under setting [2] was 94 % of control and the T/C under setting [3] was 93 % of control.

For the compound `Cc1ccc(-c2ccc(Nc3c4ccccc4nc4ccccc34)cc2)cn1`, the T/C is 106 % of control (dose: 25.0 mg/kg/injection, schedule: Q01DX005 (ip), vehicle: distilled water + Tween-80); 117 % of control (dose: 50.0 mg/kg/injection, schedule: Q01DX005 (ip), vehicle: distilled water + Tween-80); 151 % of control (dose: 100.0 mg/kg/injection, schedule: Q01DX005 (ip), vehicle: distilled water + Tween-80); 193 % of control (dose: 200.0 mg/kg/injection, schedule: Q01DX005 (ip), vehicle: distilled water + Tween-80).

Consider `S=c1nn[nH]n1-c1cccc2ccccc12`, for which the T/C is 90 % of control (dose: 100.0 mg/kg/injection, schedule: Q04DX003 (ip), vehicle: saline sonified); 100 % of control (dose: 200.0 mg/kg/injection, schedule: Q04DX003 (ip), vehicle: saline sonified); 100 % of control (dose: 400.0 mg/kg/injection, schedule: Q04DX003 (ip), vehicle: saline sonified).

Turning to `CC(C)CC1SCC(=O)N1c1nncs1` (stereo not drawn), the T/C (dose: 60.0 mg/kg/injection, schedule: Q01DX005 (ip), vehicle: saline with Tween-80) is 103 % of control; the T/C (dose: 120.0 mg/kg/injection, schedule: Q01DX005 (ip), vehicle: saline with Tween-80) is 97 % of control; the T/C (dose: 240.0 mg/kg/injection, schedule: Q01DX005 (ip), vehicle: saline with Tween-80) is 98 % of control.

In the case of `C=C1C(C2(C)C(OC(C)=O)CC(=O)OC3(C)COC(=O)CC32)C(OC=O)C(OC(=O)CC(C)C)C2(C)C(c3ccoc3)CC(=O)C12O` (stereo not drawn), the T/C (dose: 0.25 mg/kg/injection, schedule: Q01DX009 (ip), vehicle: Klucel (hydroxypropylcellulose) (HPC)) is 88 % of control; the T/C (dose: 0.5 mg/kg/injection, schedule: Q01DX009 (ip), vehicle: Klucel (hydroxypropylcellulose) (HPC)) was 91 % of control; the T/C (dose: 1.0 mg/kg/injection, schedule: Q01DX009 (ip), vehicle: Klucel (hydroxypropylcellulose) (HPC)) is 88 % of control; the T/C (dose: 2.0 mg/kg/injection, schedule: Q01DX009 (ip), vehicle: Klucel (hydroxypropylcellulose) (HPC)) is 97 % of control.

Regarding `CC1(C)C/C(=C2\COC(=O)C2=O)NN1c1ccccc1`, the T/C under setting [1] is 106 % of control, the T/C under setting [2] is 99 % of control and the T/C under setting [3] was 105 % of control.

Take `S=C1CCNCC1`: the T/C runs as follows: (dose: 3.13 mg/kg/injection, schedule: Q04DX003 (ip), vehicle: saline) 100 % of control; (dose: 6.25 mg/kg/injection, schedule: Q04DX003 (ip), vehicle: saline) 104 % of control; (dose: 12.5 mg/kg/injection, schedule: Q04DX003 (ip), vehicle: saline) 100 % of control; (dose: 25.0 mg/kg/injection, schedule: Q04DX003 (ip), vehicle: saline) 100 % of control; (dose: 50.0 mg/kg/injection, schedule: Q04DX003 (ip), vehicle: saline) 90 % of control.

For `COc1cccc2c1C(=O)c1c(O)c3c(c(O)c1C2=O)CC(O)(c1csc(C)n1)CC3O` (stereo not drawn), the T/C was 105 % of control (dose: 1.56 mg/kg/injection, schedule: Q01DX009 (ip), vehicle: other); 96 % of control (dose: 3.13 mg/kg/injection, schedule: Q01DX009 (ip), vehicle: other); 100 % of control (dose: 6.25 mg/kg/injection, schedule: Q01DX009 (ip), vehicle: other); 100 % of control (dose: 12.5 mg/kg/injection, schedule: Q01DX009 (ip), vehicle: other); 99 % of control and 107 % of control (dose: 25.0 mg/kg/injection, schedule: Q01DX009 (ip), vehicle: other); 108 % of control (dose: 50.0 mg/kg/injection, schedule: Q01DX009 (ip), vehicle: other). The T/C (dose: 100.0 mg/kg/injection, schedule: Q01DX009 (ip), vehicle: other) is 107 % of control.

Take `COc1ccc(C(=O)C(CN2CCCC2)CN2CCCC2)cc1`: the T/C by setting is: (dose: 7.5 mg/kg/injection, schedule: Q01DX005 (ip), vehicle: saline) 111 % of control; (dose: 7.5 mg/kg/injection, schedule: Q01DX009 (ip), vehicle: saline) 112 % of control; (dose: 15.0 mg/kg/injection, schedule: Q01DX004 (ip), vehicle: saline) 122 % of control; (dose: 15.0 mg/kg/injection, schedule: Q01DX005 (ip), vehicle: saline) 121 % of control; (dose: 15.0 mg/kg/injection, schedule: Q01DX009 (ip), vehicle: saline) 123 % of control; (dose: 30.0 mg/kg/injection, schedule: Q01DX004 (ip), vehicle: saline) 115 % of control. Further, the T/C (dose: 60.0 mg/kg/injection, schedule: Q01DX004 (ip), vehicle: saline) was 108 % of control.

Consider `ON=C1C2C=CC=CC1C=C2`, for which the T/C (dose: 6.25 mg/kg/injection, schedule: Q01DX009 (ip), vehicle: saline) is 90 % of control; the T/C (dose: 12.5 mg/kg/injection, schedule: Q01DX009 (ip), vehicle: saline) is 96 % of control; the T/C (dose: 25.0 mg/kg/injection, schedule: Q01DX009 (ip), vehicle: saline) was 90 % of control.

On to `C#CCOC(=O)c1ccc(C(=O)OCC#C)cc1`, for which the T/C reads like this: (dose: 100.0 mg/kg/injection, schedule: Q04DX003 (ip), vehicle: saline with Tween-80) 100 % of control; (dose: 200.0 mg/kg/injection, schedule: Q04DX003 (ip), vehicle: saline with Tween-80) 90 % of control.

With `CC(=O)O[C@@]1(C)OC(=O)[C@@]2(c3ccccc3)N(C(C)=O)C(C)=C(C#N)[C@@]12C#N`, the T/C by setting is: under setting [4], 100 % of control; under setting [5], 106 % of control; under setting [6], 97 % of control.

Consider `Cc1cc(C)nc(NS(=O)(=O)c2ccc(N=c3c4ccccc4n(C)c4ccccc34)cc2)n1`, for which the T/C by setting is: under setting [4], 90 % of control; under setting [5], 97 % of control; under setting [6], 90 % of control.

With `CCCOC1=NC2=NC(N3CCCC3)=NC3=C(Cl)C=C(Cl)C(=N1)N23`, the T/C (dose: 25.0 mg/kg/injection, schedule: Q04DX002 (ip), vehicle: Klucel + Tween-80) is 94 % of control; the T/C (dose: 50.0 mg/kg/injection, schedule: Q04DX002 (ip), vehicle: Klucel + Tween-80) is 87 % of control; the T/C (dose: 100.0 mg/kg/injection, schedule: Q04DX002 (ip), vehicle: Klucel + Tween-80) is 116 % of control and 86 % of control.

Take `O=C(NC(CO)C(=O)OCc1ccccc1)OCc1ccccc1` (stereo not drawn): the T/C by setting is: under setting [2], 90 % of control; under setting [3], 90 % of control; (dose: 400.0 mg/kg/injection, schedule: Q01DX009 (ip), vehicle: saline with Tween-80) 95 % of control.

These data come from PubChem BioAssay AID330 (DTP/NCI, 2004).
